In ChEMBL document CHEMBL4396910, “Endomorphin-2 analogs containing modified tyrosines: Biological and theoretical investigation of the influence on conformation and pharmacological profile” (Eur J Med Chem, 2019):
pEC50, pKi: −log10 of the molar value.

Legend:
[1] = Retention time of the compound by RP-HPLC analysis; format: physicochemical
Mu-type opioid receptor [2] = molecular target: T1, Mu-type opioid receptor (Homo sapiens, UniProt P35372); experiment: Agonist activity at human recombinant MOR expressed in CHO cells co-expressing C-terminally modified Galphaqi5 assessed as induction of calcium mobilization by Fluo-4AM dye-based fluorescence assay; format: functional, cell-based
T1 sequence (P35372 whole entry): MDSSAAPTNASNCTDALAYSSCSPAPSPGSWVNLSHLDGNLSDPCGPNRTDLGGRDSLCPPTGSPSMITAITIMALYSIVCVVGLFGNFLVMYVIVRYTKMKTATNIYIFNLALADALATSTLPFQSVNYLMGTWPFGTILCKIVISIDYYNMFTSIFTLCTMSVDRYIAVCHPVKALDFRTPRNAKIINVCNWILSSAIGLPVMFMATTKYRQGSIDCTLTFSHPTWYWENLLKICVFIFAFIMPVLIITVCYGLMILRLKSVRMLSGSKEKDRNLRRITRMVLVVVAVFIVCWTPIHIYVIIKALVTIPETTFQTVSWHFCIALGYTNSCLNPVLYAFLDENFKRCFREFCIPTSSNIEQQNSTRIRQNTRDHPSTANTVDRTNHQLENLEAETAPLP

[3] = molecular target: Delta-type opioid receptor (Homo sapiens, UniProt P41143); experiment: Displacement of [3H]deltrophin-2 from human recombinant DOR expressed in CHO cell membranes incubated for 2 hrs by liquid scintillation counting method
Sequence of Delta-type opioid receptor (P41143 whole entry): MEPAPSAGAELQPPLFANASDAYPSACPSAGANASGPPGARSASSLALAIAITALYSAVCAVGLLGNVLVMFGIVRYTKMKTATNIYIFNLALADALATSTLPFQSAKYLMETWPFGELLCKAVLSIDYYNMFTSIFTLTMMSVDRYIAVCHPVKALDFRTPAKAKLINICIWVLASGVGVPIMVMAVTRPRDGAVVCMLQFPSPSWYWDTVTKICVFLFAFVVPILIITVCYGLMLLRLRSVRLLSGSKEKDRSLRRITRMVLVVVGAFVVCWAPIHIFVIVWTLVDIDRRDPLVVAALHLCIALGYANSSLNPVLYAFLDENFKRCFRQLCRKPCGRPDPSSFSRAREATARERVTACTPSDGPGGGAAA

Mu-type opioid receptor [4] = molecular target: T1, Mu-type opioid receptor; experiment: Displacement of [3H]DAMGO from human recombinant MOR expressed in CHO cell membranes incubated for 2 hrs by liquid scintillation counting method
Mu-type opioid receptor [5] = molecular target: T1, Mu-type opioid receptor; experiment: Potency index, ratio of endomorphin Ki to compound Ki for human recombinant MOR expressed in CHO cell membranes using [3H]DAMGO by radioligand binding assay
Mu-type opioid receptor [6] = molecular target: T1, Mu-type opioid receptor; experiment: Agonist activity at human recombinant MOR expressed in CHO cells co-expressing C-terminally modified Galphaqi5 assessed as induction of calcium mobilization by Fluo-4AM dye-based fluorescence assay relative to endomorphin-2; format: functional, cell-based
[7] = n-Octanol/water partition coefficient, log P of compound at 50 ug at pH 7.4 measured after 2 mins by RP-HPLC analysis; format: physicochemical; conditions: pH 7.4, 2 min
[8] = molecular target: Kappa-type opioid receptor (Homo sapiens, UniProt P41145); experiment: Displacement of [3H]U-69593 from human recombinant KOR expressed in CHO cell membranes incubated for 2 hrs by liquid scintillation counting method
Sequence of Kappa-type opioid receptor (P41145 whole entry): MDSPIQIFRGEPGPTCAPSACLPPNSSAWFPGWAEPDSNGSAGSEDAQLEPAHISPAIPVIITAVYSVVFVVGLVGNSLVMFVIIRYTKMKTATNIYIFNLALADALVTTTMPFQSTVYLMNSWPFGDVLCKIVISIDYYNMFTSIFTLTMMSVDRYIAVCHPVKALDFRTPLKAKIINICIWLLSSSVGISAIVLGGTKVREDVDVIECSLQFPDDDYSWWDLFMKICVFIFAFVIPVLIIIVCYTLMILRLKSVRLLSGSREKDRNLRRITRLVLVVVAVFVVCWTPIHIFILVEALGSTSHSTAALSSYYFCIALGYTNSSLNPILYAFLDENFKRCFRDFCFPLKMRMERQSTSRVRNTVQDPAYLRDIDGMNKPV

Compound | Retention_time [1] | pEC50 (Mu-type opioid receptor [2]) | pKi [3] | pKi (Mu-type opioid receptor [4]) | Ratio Ki (Mu-type opioid receptor [5]) | Intrinsic activity (Mu-type opioid receptor [6]) | logP [7] | pKi [8]
Cc1cc(O)cc(C)c1C[C@H](N)C(=O)N1CCC[C@H]1C(=O)N[C@@H](Cc1ccccc1)C(=O)N[C@@H](Cc1ccccc1)C(N)=O | 16.484 min | 8.78 | 6.55 | 9.09 | 4 | 0.91 | 1.98 | 
COc1cc(C[C@H](N)C(=O)N2CCC[C@H]2C(=O)N[C@@H](Cc2ccccc2)C(=O)N[C@@H](Cc2ccccc2)C(N)=O)cc(OC)c1O | 14.83 min | 8.10 | 4.97 | 8.36 |  | 1.1 | 0.67 | 5.35
NC(=O)[C@H](Cc1ccccc1)NC(=O)[C@H](Cc1ccccc1)NC(=O)[C@@H]1CCCN1C(=O)[C@@H](N)Cc1ccc(O)cc1 [ENDOMORPHIN 2] |  |  |  |  |  |  | 1.13 | 
Cc1cc(C[C@H](N)C(=O)N2CCC[C@H]2C(=O)N[C@@H](Cc2ccccc2)C(=O)N[C@@H](Cc2ccccc2)C(N)=O)cc(C)c1O | 16.508 min | 8.02 | 5.28 | 8.30 |  | 1.04 | 1.78 | 5.33
NC(=O)[C@H](Cc1ccccc1)NC(=O)[C@H](Cc1ccccc1)NC(=O)[C@@H]1CCCN1C(=O)[C@@H](N)Cc1cccc(O)c1 | 15.168 min | 7.35 | 4.90 | 7.72 |  | 0.87 | 1.37 | 5.04
Cc1cc(O)c(Cl)c(C)c1C[C@H](N)C(=O)N1CCC[C@H]1C(=O)N[C@@H](Cc1ccccc1)C(=O)N[C@@H](Cc1ccccc1)C(N)=O | 16.122 | 9.21 | 6.05 | 9.59 |  | 0.92 | 1.8 | 7.43
